{"source": "a melting point compilation (Tetko et al.; mined from patent text by program, amines drawn as free bases though some values may be those of a salt)"}
{"units": {"melting point": "°C"}}
{"smiles": "CC(=O)C(C(N)=O)=C(C)[N+](=O)[O-]", "melting point": "159 to 161"}
{"smiles": "CCCCCCCCCCCCCCCC(=O)c1c(Br)cc(OC)c(OC)c1C(=O)NC[C@@H]1CCCN1CC", "melting point": "46 to 48"}
{"smiles": "CN1CCC(c2ccc(Oc3ccccc3)cc2)(C(C)(C)O)CC1", "melting point": 148}
{"smiles": "CC1(C)NC(=O)CN1C(=O)CCl", "melting point": "151 to 153"}
{"smiles": "O=C(SCC(SC(=O)c1ccccc1)C(=O)O)c1ccccc1", "note": "(stereo not drawn)", "melting point": "116 to 118"}
{"smiles": "CCc1cccc(C)c1CNc1cc(Br)cc2c1nc(CO)n2C", "melting point": "206 to 208"}
{"smiles": "COC(=O)c1cnn2c(O)cc(C(F)(F)F)nc12", "melting point": "216 to 217"}
{"smiles": "CCCOc1cc(C)cnc1CCCCNc1ncc(Cc2ccc(C)nc2)c(=O)[nH]1", "melting point": "81 to 85"}
{"smiles": "O=C(O)CCC(=O)Nc1ccc(-c2ccncc2)cc1", "melting point": "251 to 252"}
{"smiles": "CCCn1nc2c(N)nc3ccccc3c2c1CC(C)(C)NC(C)=O", "melting point": "182 to 183"}
{"smiles": "O=C(Cc1cccc2ccccc12)N1CC=C(c2cccc(C(F)(F)F)c2)CC1", "melting point": "137 to 140"}
{"smiles": "c1ccc(COc2cc(-c3ccccn3)nc(-c3cccc(-c4ccccc4)n3)c2)cc1", "melting point": 182}
{"smiles": "CCCc1nc(C)nc(Cl)c1Cc1ccc([N+](=O)[O-])cc1", "melting point": 65}
{"smiles": "O=C(O)C1=Cc2cc(C(=O)c3ccccc3)ccc2OC1C(F)(F)F", "note": "(stereo not drawn)", "melting point": "270 to 271"}
{"smiles": "COC(=O)C1=Cc2cc(Br)ccc2CCC1", "melting point": "83 to 84"}
{"smiles": "O=C(CCl)Nc1ccc2cc3ccc(NC(=O)CCl)cc3nc2c1", "melting point": "95 to 100"}
{"smiles": "COC(=O)[C@@H]1O[C@H](c2ccc(OC)cc2)N(C(=O)OC(C)(C)C)[C@H]1c1ccccc1", "melting point": "104 to 105"}
{"smiles": "Cc1cc(C)c(C)c(COc2ccc(-c3ccoc3C(=O)NNC(=O)c3ccc(O)c(C#N)c3)cc2)c1C", "melting point": "183 to 186"}
{"smiles": "CNc1n[nH]c(=O)n1NC", "melting point": "135 to 137"}
{"smiles": "COc1ccc2c(c1OC)C(=O)OC21CN(C)Cc2ccccc21", "note": "(stereo not drawn)", "melting point": "193 to 194"}
{"smiles": "CC(C)(C)OC(=O)NCC(C(=O)OCc1ccccc1)c1ccccc1", "note": "(stereo not drawn)", "melting point": "58 to 59"}
{"smiles": "CC(C)c1cc2c(c(O)c1O)C1(C(=O)O)CCCC(C)(C)C1CC2", "note": "(stereo not drawn)", "melting point": "193 to 199"}
{"smiles": "CCOC(=O)C1=C(COC(C)=O)Nc2nc(N)nc(N)c2C1c1cccc([N+](=O)[O-])c1", "note": "(stereo not drawn)", "melting point": 219}
{"smiles": "CON=C1CN(c2cc3c(cc2F)c(=O)c(C(=O)O)cn3C2CC2)CC12CN(C(=O)OC(C)(C)C)C2", "melting point": "255 to 256"}
{"smiles": "Cc1cc(-c2nc(COc3ccc(CCCn4ccnc4)cc3)co2)sc1Br", "melting point": "92 to 93"}
{"smiles": "O=C(O)Cc1ccc(OCCNC(=O)C2Cc3ccccc3N2S(=O)(=O)c2ccc(-c3cc(Cl)ccc3Cl)cc2)cc1", "note": "(stereo not drawn)", "melting point": "80 to 86"}
{"smiles": "CNC(=N[N+](=O)[O-])N(Cc1cnc(Cl)s1)C(C)=O", "melting point": "105 to 106"}
{"smiles": "CCC(C)(COc1nn2ncnc2cc1C)CS(N)(=O)=O", "note": "(stereo not drawn)", "melting point": "189 to 190"}
{"smiles": "COC(=O)N1CCc2onc(OC)c2C1", "melting point": "58 to 60"}
{"smiles": "CS(=O)(=O)Nc1cc2c(cc1Oc1ccccc1)C(=O)C(Sc1ccccc1)(Sc1ccccc1)C2", "melting point": 162}
{"smiles": "O=S1(=O)c2ccc(O)cc2Oc2cc(F)ccc21", "melting point": "258 to 260"}
{"smiles": "COc1ccc(N2C3CCC2CC(=O)C3)cc1", "melting point": "133 to 134"}
{"smiles": "CCCn1c(N)c(NC(=O)C2(NC(=O)C(F)(F)F)CCCC2)c(=O)n(CCC)c1=O", "melting point": "203 to 204"}
{"smiles": "O=C(O)CCOc1cccc(CN2CCCCC2)c1", "melting point": "178 to 180"}
{"smiles": "OCCOc1ccccc1-c1ccccc1", "melting point": "71 to 75"}
{"smiles": "O=C(c1ccoc1)c1ccc2[nH]c(=O)cc(-c3cccc(Cl)c3)c2c1", "melting point": "> 250"}
{"smiles": "c1ccc2c(NCC3CCCCC3)c3cnn(C4CCCC4)c3nc2c1", "melting point": "290 to 292"}
{"smiles": "CC(C)c1nc2[nH]c(=O)[nH]c(=O)c2c(-c2ccc(F)cc2)c1/C=C/C=O", "melting point": 255}
{"smiles": "O=Cc1cccc(OCc2ccc3ccccc3c2)c1", "melting point": "105 to 106"}
{"smiles": "N#Cc1cc(N)ccc1N1CCC(c2ccccc2)CC1", "melting point": "158 to 162"}
{"smiles": "O=C(Nc1ccccc1)Nc1ccnc(F)c1", "melting point": "179 to 180"}
{"smiles": "C[C@H](CO)Nc1nc(SCc2cccc(F)c2F)nc2[nH]c(=O)c(NCCO)nc12", "melting point": "197 to 199"}
{"smiles": "COC(=O)NNC(=O)Nc1ccccc1", "melting point": "154 to 155"}
{"smiles": "O=CN1C(=O)[C@H]2N=C(Cc3ccccc3)O[C@H]21", "melting point": "90 to 92"}
{"smiles": "CC(C)n1c(=O)[nH]c(C(F)(F)F)c(Br)c1=O", "melting point": "149 to 150"}
{"smiles": "CC1(COCC(COCC2(C)COC2)(COCC2(C)COC2)COCC2(C)COC2)COC1", "melting point": "108 to 110"}
{"smiles": "CCOC(=O)Cc1ccc(-c2nc(COc3ccc(COc4nn(-c5ccccc5)cc4/C=C\\c4csc(CC)n4)cc3OC)c(C)o2)cc1", "melting point": "136 to 137"}
{"smiles": "CC(NC(=O)c1cc(Cl)ccc1NC(=O)C1CC(O)=NN1c1ncccc1Cl)C1CC1", "note": "(stereo not drawn)", "melting point": "165 to 167"}
{"smiles": "Cc1ccccc1C(=O)c1ccc(Nc2ccccc2NS(=O)(=O)c2ccccc2)cc1Cl", "melting point": "211 to 215"}
{"smiles": "O=C(O)c1ccc(C=C2CCN(C(=O)c3ccc(Cl)cc3)CC2)c(F)c1", "melting point": "170 to 173"}
{"smiles": "NC(=O)c1cc(-c2cccc(Cl)c2)sc1N", "melting point": "190 to 192"}
{"smiles": "COc1ccc(-c2nc(O)c(-c3ccccc3)s2)cc1", "melting point": "218 to 221"}
{"smiles": "Fc1ccc2c(CCN=c3sc4ccccc4s3)c[nH]c2c1", "melting point": 193}
{"smiles": "COc1ccc(C[C@H](Nc2nc3ccc(Cl)cc3cc2C(=O)O)C(=O)O)cc1", "melting point": "155 to 158"}
{"smiles": "COC(=O)c1cccc(/C=C/c2cccc(OC)c2)c1", "melting point": "92 to 94"}
{"smiles": "CSc1ccc(C2=CC(=O)C(C)(C)O2)cc1", "melting point": "107 to 109"}
{"smiles": "CC(=O)NNc1nc(C(F)(F)F)nc(-c2ccc(S(C)(=O)=O)cc2)c1-c1ccccc1F", "melting point": "281 to 283"}
{"smiles": "OCc1ccc2c(c1)C=C(n1ccnc1)CC2", "melting point": "88 to 91"}
{"smiles": "COc1ccc(-c2cc(C(N)=O)c(=O)n(CC=Cc3ccccc3)n2)cc1", "melting point": "184 to 186"}
{"smiles": "CN(c1ccc(S(C)(=O)=O)cc1)S(=O)(=O)c1cccc(NC(=O)c2ccc(S(C)=O)cc2)c1", "note": "(stereo not drawn)", "melting point": "184 to 186"}
{"smiles": "CC(=O)c1ccc(SCc2cc3c(cc2O)CCCO3)cc1", "melting point": "192 to 193"}
{"smiles": "Cc1cccc(Nc2ccccc2C=O)c1C", "melting point": "45 to 47"}
{"smiles": "Cc1ccnc(CCOc2ccc(NC(=O)N(C)C)cc2)c1", "melting point": "132 to 133"}
{"smiles": "O=C1NC(=O)C(=Cc2cccc(OCc3ccccc3)c2)S1", "melting point": "233 to 235"}
{"smiles": "O=C(NCC1Cc2cc(Br)cc3[nH]c(=O)c(=O)n1c23)c1ccccc1", "note": "(stereo not drawn)", "melting point": "180 to 182"}
{"smiles": "CCN(CC)C(=O)CN1C(=O)C(NC(=O)Nc2cccc(OC)c2)N=C(c2ccccc2)c2ccccc21", "note": "(stereo not drawn)", "melting point": "222 to 224"}
{"smiles": "CNC(=O)CNC(=O)c1cncc(F)c1", "melting point": "201 to 202"}
{"smiles": "CNS(=O)(=O)c1cc(O)ccc1OC(=O)c1ccccc1", "melting point": "168 to 170"}
{"smiles": "O=C(Nc1c(OCCN(Cc2ccccc2)C(=O)C(F)(F)F)cccc1[N+](=O)[O-])C(F)(F)F", "melting point": "114 to 115"}
{"smiles": "COc1ccc(S(=O)(=O)C2(C(=O)O)CCN(Cc3ccc(C)cc3)CC2)cc1", "melting point": "176 to 177"}
{"smiles": "CS(=O)(=O)c1nnc(-c2ccnc(Nc3cccc(C(F)(F)F)c3)c2)o1", "melting point": "105 to 106"}
{"smiles": "CN1CCN(CCO)C1=Nc1ccccc1N1CCOCC1", "melting point": "129 to 131"}
{"smiles": "Cc1ccc(C2CCc3ccccc3O2)cc1", "note": "(stereo not drawn)", "melting point": 94}
